Laboratory results as given in US20250057844A1, “METHODS OF TREATING NEOPLASTIC DISEASES” (SILLAJEN, INC., priority 2021, published 2025).
Entries after “also recorded” stand apart in the source; their conditions may differ. Like-named read-outs stand apart in the source and are kept apart here.

Key:
[1] = tested on: tumor patient-derived xenografts (PDX), including TNBC and hepatocellular cancer (HCC) models; test: Patient-derived xenografts (PDX) in mice; format: in vivo; conditions: data not shown
[2] = Third PK study: intravenous dose on day 1 or on day 6 after 5 days oral dosing; format: in vivo, female Swiss Albino mice; conditions: for half-life / clearance / Vd / AUC(0-inf) / AUC(0-t) / C0: female, Swiss Albino, mouse, plasma, iv, 5 mg/kg
Description: In a third study female Swiss Albino mice were administered intravenously (bolus, 5 mL/kg) dose of 5 mg/kg of the compound of formula (I). Group 1 (9 mice) received a single i.v. dose administration on day 1. Group 2 (9 mice) received daily oral administration of 10 mg/kg of the compound of formula (I) from day 1 to day 5 following by a single i.v. dose administration of 5 mg/kg of the compound of formula (I) on day 6. PK samples were collected on day 1 for group 1 and on day 6 for group 2. The formulation vehicle consisted of ethanol, PEG 400 and citric acid 20 mM (10/10/80; v/v/v) in water for injection (WFI). Blood samples were taken pre-dose and at 0.083, 0.25, 0.5, 1, 2, 6, 12, and 24 h post-dose administration (3 mice/time point). In each of the three studies blood was collected via the sephanous vein into K2-EDTA tubes kept on ice until centrifugation at 4° C. Plasma was stored at ap-proximately-80° C. […] PK parameters were calculated using Phoenix® WinNonLin 6.4. PK analysis was based on sparse sampling.

[3] = First PK study: single oral dose, two formulations; format: in vivo, female Swiss Albino mice; conditions: for Tmax / bioavailability / AUC(0-inf) / AUC(0-t) / Cmax / half-life: Swiss Albino, mouse, plasma; for bioavailability: based on i.v. exposure; for AUC(0-t): AUC0-24 h; for Cmax: mean (SD); for half-life: read-out: Apparent T1/2 (converted)
Description: Plasma samples were collected on day 1 for Groups 1 to 6. Formulation 1 consisted of DMSO, cremophor EL, and 5% mannitol in water (10/10/80; v/v/v). Formulation 2 consisted of ethanol, PEG 400, and citric acid 20 mM (10/10/80; v/v/v). […] In each of the three studies blood was collected via the sephanous vein into K2-EDTA tubes kept on ice until centrifugation at 4° C. Plasma was stored at ap-proximately-80° C. […] PK parameters were calculated using Phoenix® WinNonLin 6.4. PK analysis was based on sparse sampling.

MDA-MB-231 tumor cells = test: MDA-MB-231 TNBC xenograft study
Description: Female NCr nu/nu nude mice (CharlesRiver laboratories) of 8-12 weeks of age were subcutaneously (s.c.) inoculated in the flank with 5×10^6 MDA-MB-231 tumor cells. Randomization into treatment groups (8 mice per group) was made when the mean tumor size was 100-150 mm3.
Body weights and tumor volumes were determined at least twice per week by measuring two dimensions with calipers and applying the formula “V=(L×W2)/2”, where V is the tumor volume, and L and W are the tumor length and width respectively. […] Mice were also culled if the BWL was determined to be >15% for 3 consecutive days. Any mice with >10% BWL received a dosing holiday until the BWL returned to <10%. All animal protocols were reviewed and approved by the relevant local committees in USA (IACUC) where the studies were performed.

[4] = Group 1, Day 1: single 5 mg/kg i.v., female mice
[5] = Group 2, Day 6: 5 mg/kg i.v. after 10 mg/kg oral daily for 5 days, female mice
[6] = female, po, 5 mg/kg, single oral 5 mg/kg, Formulation 1, female mice
[7] = female, po, 5 mg/kg, single oral 5 mg/kg, Formulation 2, female mice
[8] = female, po, 7.5 mg/kg, single oral 7.5 mg/kg, Formulation 1, female mice
[9] = female, po, 7.5 mg/kg, single oral 7.5 mg/kg, Formulation 2, female mice
[10] = female, po, 10 mg/kg, single oral 10 mg/kg, Formulation 1, female mice
[11] = female, po, 10 mg/kg, single oral 10 mg/kg, Formulation 2, female mice
[12] = single oral 5 mg/kg, Formulation 1, female mice
[13] = single oral 5 mg/kg, Formulation 2, female mice
[14] = single oral 7.5 mg/kg, Formulation 1, female mice
[15] = single oral 7.5 mg/kg, Formulation 2, female mice
[16] = single oral 10 mg/kg, Formulation 1, female mice
[17] = single oral 10 mg/kg, Formulation 2, female mice

COc1cc(N2CCNCC2)ccc1Nc1ncc2c(n1)-n1ccc(C(=O)Nc3c(C)cccc3C)c1CC2 [compound of formula (I)]
activity against PDX [1]: significant activity
concentrations at 24 hours lower than C0 ([2]; 5 mg/kg i.v.): more than 100 fold
maximum AUCinf extrapolation ([2]; 5 mg/kg i.v.): ≤ 2.54%
AUC_% extrapolated [2, 4]: 2.54%
Clast [2, 4]: 5.4 ng/mL
AUC_% extrapolated [2, 5]: 1.65%
Clast [2, 5]: 4.29 ng/mL
half-life ([2]; 5 mg/kg i.v., both groups, read-out: half-life): 4 to 4.7 h
clearance ([2]; 5 mg/kg i.v., both groups, read-out: plasma clearance): 55.4 to 57.9 mL/min/kg
Vd ([2]; 5 mg/kg i.v., both groups, read-out: volume of distribution): 15.4 to 19 L/kg
AUC(0-inf) [2, 4]: 1440 ng·h/mL
AUC(0-t) [2, 4]: 1400 ng·h/mL
C0 [2, 4]: 636 ng/mL
clearance ([2]; Group 1, Day 1: single 5 mg/kg i.v., female mice, read-out: CL): 57.9 mL/min/kg
half-life ([2]; Group 1, Day 1: single 5 mg/kg i.v., female mice, read-out: T1/2 (converted)): 4.7 h
Vd ([2]; Group 1, Day 1: single 5 mg/kg i.v., female mice, read-out: Vss): 19 L/kg
AUC(0-inf) [2, 5]: 1500 ng·h/mL
AUC(0-t) [2, 5]: 1480 ng·h/mL
C0 [2, 5]: 627 ng/mL
clearance ([2]; Group 2, Day 6: 5 mg/kg i.v. after 10 mg/kg oral daily for 5 days, female mice, read-out: CL): 55.4 mL/min/kg
half-life ([2]; Group 2, Day 6: 5 mg/kg i.v. after 10 mg/kg oral daily for 5 days, female mice, read-out: T1/2 (converted)): 4 h
Vd ([2]; Group 2, Day 6: 5 mg/kg i.v. after 10 mg/kg oral daily for 5 days, female mice, read-out: Vss): 15.4 L/kg
Tmax ([3]; single oral 5 mg/kg, Formulation 1, female mice, read-out: Tmax): 4 h
Tmax ([3]; single oral 7.5 mg/kg, Formulation 1, female mice, read-out: Tmax): 4 h
Tmax ([3]; single oral 10 mg/kg, Formulation 1, female mice, read-out: Tmax): 4 h
bioavailability ([3]; female, oral, single dose administration, read-out: oral bioavailability): 76 to 96%
AUC(0-inf) [3, 6]: 1100 ng·h/mL
AUC(0-t) [3, 6]: 1080 ng·h/mL
bioavailability ([3]; female, po, 5 mg/kg, single oral 5 mg/kg, Formulation 1, female mice, read-out: F (%)): 76%
Cmax [3, 6]: 108 ng/mL
half-life [3, 6]: 3.27 h
AUC(0-inf) [3, 7]: 1130 ng·h/mL
AUC(0-t) [3, 7]: 1120 ng·h/mL
bioavailability ([3]; female, po, 5 mg/kg, single oral 5 mg/kg, Formulation 2, female mice, read-out: F (%)): 78%
Cmax [3, 7]: 103 ng/mL
half-life [3, 7]: 3.29 h
AUC(0-inf) [3, 8]: 1660 ng·h/mL
AUC(0-t) [3, 8]: 1650 ng·h/mL
bioavailability ([3]; female, po, 7.5 mg/kg, single oral 7.5 mg/kg, Formulation 1, female mice, read-out: F (%)): 77%
Cmax [3, 8]: 164 ng/mL
half-life [3, 8]: 3.23 h
AUC(0-inf) [3, 9]: 1910 ng·h/mL
AUC(0-t) [3, 9]: 1880 ng·h/mL
bioavailability ([3]; female, po, 7.5 mg/kg, single oral 7.5 mg/kg, Formulation 2, female mice, read-out: F (%)): 88%
Cmax [3, 9]: 172 ng/mL
half-life [3, 9]: 3.51 h
AUC(0-inf) [3, 10]: 2480 ng·h/mL
AUC(0-t) [3, 10]: 2430 ng·h/mL
bioavailability ([3]; female, po, 10 mg/kg, single oral 10 mg/kg, Formulation 1, female mice, read-out: F (%)): 86%
Cmax [3, 10]: 210 ng/mL
half-life [3, 10]: 3.66 h
AUC(0-inf) [3, 11]: 2770 ng·h/mL
AUC(0-t) [3, 11]: 2730 ng·h/mL
bioavailability ([3]; female, po, 10 mg/kg, single oral 10 mg/kg, Formulation 2, female mice, read-out: F (%)): 96%
Cmax [3, 11]: 276 ng/mL
half-life [3, 11]: 3.43 h
Tmax ([3]; female, single oral administration, 5-10 mg/kg, both formulations, read-out: median Tmax): 4 h
% extrapolated [3, 12]: 1.11%
AUCinf/Dose [3, 12]: 220 ng·h/mL/mg/kg
AUClast/Dose [3, 12]: 216 (h*ng/mL)/(mg/kg)
Cmax/Dose [3, 12]: 21.6 (ng/mL)/(mg/kg)
% extrapolated [3, 13]: 1.14%
AUCinf/Dose [3, 13]: 226 ng·h/mL/mg/kg
AUClast/Dose [3, 13]: 224 (h*ng/mL)/(mg/kg)
Cmax/Dose [3, 13]: 20.6 (ng/mL)/(mg/kg)
% extrapolated [3, 14]: 1.06%
AUCinf/Dose [3, 14]: 221 ng·h/mL/mg/kg
AUClast/Dose [3, 14]: 220 (h*ng/mL)/(mg/kg)
Cmax/Dose [3, 14]: 21.9 (ng/mL)/(mg/kg)
% extrapolated [3, 15]: 1.67%
AUCinf/Dose [3, 15]: 255 ng·h/mL/mg/kg
AUClast/Dose [3, 15]: 251 (h*ng/mL)/(mg/kg)
Cmax/Dose [3, 15]: 22.9 (ng/mL)/(mg/kg)
% extrapolated [3, 16]: 1.9%
AUCinf/Dose [3, 16]: 248 ng·h/mL/mg/kg
AUClast/Dose [3, 16]: 243 (h*ng/mL)/(mg/kg)
Cmax/Dose [3, 16]: 21 (ng/mL)/(mg/kg)
% extrapolated [3, 17]: 1.47%
AUCinf/Dose [3, 17]: 277 ng·h/mL/mg/kg
AUClast/Dose [3, 17]: 273 (h*ng/mL)/(mg/kg)
Cmax/Dose [3, 17]: 27.6 (ng/mL)/(mg/kg)
Tumor-free (%) (cured based on pathological analysis) (MDA-MB-231 tumor cells; 25 mg/kg, QW, IV): 25%
Tumor-free (pathological evaluation) (MDA-MB-231 tumor cells; 25 mg/kg, QW, IV, mouse 2 and 3): no detectable residual tumor cells; also recorded: no neoplastic epithelial cells (residual tumor cells) were observed
Tumor-free (pathological evaluation) (MDA-MB-231 tumor cells; 25 mg/kg, QW, IV, mouse 2 and 3, listed as Formula (I)): Yes
Tumor-free (pathological evaluation) (MDA-MB-231 tumor cells; 25 mg/kg, QW, IV, mouse 8): two small aggregates of neoplastic cells at the inoculation site; also recorded: still displayed some neoplastic tissue
Tumor-free (pathological evaluation) (MDA-MB-231 tumor cells; 25 mg/kg, QW, IV, mouse 8, listed as Formula (I)): No
local finding leading to treatment stop at Day-30 (MDA-MB-231 tumor cells; 2QW MTD i.v. dosing, repeated IV-injections): tail vein irritations (scabbing)
efficacy of 0.5×MTD i.v. dosing versus MTD daily oral dosing (MDA-MB-231 tumor cells; FIG. 3 and FIG. 4): equipotent efficacy
animals with no measurable/palpable tumor mass (MDA-MB-231 tumor cells; QW MTD i.v. until Day-98, observed Day-80 to Day-125, two of eight animals (FIG. 3 study)): 25%
residual tumor cells by H&E (two animals without palpable tumor) (MDA-MB-231 tumor cells; QW MTD i.v., FIG. 3 study, Day-125): tumor-free
efficacy of MTD i.v. dosing versus MTD oral daily treatment (MDA-MB-231 tumor cells; QW and 2QW i.v., FIG. 3 and FIG. 4): far superior
drug-related animal deaths (MDA-MB-231 tumor cells; all i.v. QW and 2QW treatments, FIG. 1): no drug-related animal deaths recorded
body weight loss (MDA-MB-231 tumor cells; dosing at the MTD, i.v., FIG. 1): ≤ 10%
anti-tumor effect (MDA-MB-231 tumor cells; i.v. MTD-dosing (QW 25 mg/kg, 2QW 12.5 mg/kg), FIG. 1): tumor stasis and tumor regressions were observed
tolerability (MDA-MB-231 tumor cells; mouse, in vivo): relatively well tolerated, with no animal deaths
tumor volume of three of eight tumors after treatment cessation (MDA-MB-231 tumor cells; weekly i.v. MTD group, 20 days observation after cessation on D100): ≤ 6 mm3
